The target in the experiment is T1, TcpJ (Vibrio cholerae serotype O1, UniProt A5F385).
T1 construct: made in house; host or cells: E. coli JM109 carrying pCL9 (total membrane fraction)
T1 sequence (A5F385 1-253): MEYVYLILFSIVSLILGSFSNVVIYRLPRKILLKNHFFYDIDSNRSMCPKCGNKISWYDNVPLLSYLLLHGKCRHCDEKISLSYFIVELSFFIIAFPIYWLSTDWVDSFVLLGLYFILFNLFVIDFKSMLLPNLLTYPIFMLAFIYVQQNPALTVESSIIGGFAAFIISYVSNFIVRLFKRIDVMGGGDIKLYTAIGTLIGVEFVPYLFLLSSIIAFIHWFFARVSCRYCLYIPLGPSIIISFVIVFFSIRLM
As to the kind of experiment: In vitro TcpA prepilin cleavage assay with inhibitors. Format: biochemical. Conditions: compared to compounds where R is methyl. The procedure: By way of illustration, the effect of inhibitors on the peptidase activity of TcpJ can be determined by incubating the inhibitor with an amount of membrane preparation known to contain 1 unit of activity of TcpJ for 30 minutes at room temperature. The TcpJ/inhibitor mixture is then tested for peptidase activity. Amounts of cleaved TcpA prepilin can be quantitated and applied to the formula: % cleavage=(amount of cleaved TcpA in inhibition assay/amount of cleaved TcpA in no inhibitor control assay)×100.
Membrane preparations were prepared according to a modified cell fractionation protocol (Pfau (1998) J. Bact. 180(17):4724-33). Overnight cultures were placed on ice for 20 minutes then pelleted at 5000×g for 10 minutes. The cell pellet was resuspended in 1 ml 200 mM Tris pH 8.0 to which 1 ml 50 mM Tris pH 8.0, 1 M sucrose, 2 ml water, 20 μl 0.5 M EDTA, and 20 μl lysozyme (10 mg/ml) were added. The cell suspension was allowed to incubate on ice for 30 minutes. Then, 100 μl 1 M MgSO4 was added and the suspension was pelleted at 5000×g for 10 minutes. […]
A membrane preparation from the E. coli strain K38 p3Z-A, pGP1-2, which was determined to contain 0.2 μg TcpA prepilin/μl, was the source of prepilin in the in vitro TcpJ proteases assay instead of purified prepilin. […]

Regarding `Nc1cc[n+](Cc2ccc(-c3ccc(C[n+]4ccc(N)c5ccccc54)cc3)cc2)c2ccccc12` [TC-7], the IC50 value result was “lower IC50 value compared to compounds where R is methyl”.

The record behind these values is patent publication US9796679B2, “Type 4 prepilin peptidase inhibitors and methods of use” (priority 2014, dated 2017).
